Measured values published in PubChem BioAssay (NCI).
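Test compounds were applied to cells in 96-well plates for 48 hours at 5 doses. TGI: concentration producing complete growth inhibition.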

Key:
Experiment in all cases: growth of human tumour cells (NCI), 48 h
[1] = test system: RXF 393 renal
[2] = test system: OVCAR-3 ovarian
[3] = test system: MOLT-4 leukemia
[4] = test system: SW-620 colon
[5] = test system: SF-268 CNS
[6] = test system: IGROV1 ovarian
[7] = test system: K-562 leukemia
[8] = test system: NCI-H226 lung
[9] = test system: A549 NSCLC
[10] = test system: MDA-N
[11] = test system: HT29 colon
[12] = test system: NCI-H460 lung
[13] = test system: MDA-MB-435
[14] = test system: UACC-62 melanoma
[15] = test system: HCT-116 colon
[16] = test system: NCI/ADR-RES ovarian
[17] = test system: T-47D breast
[18] = test system: LOX IMVI melanoma
[19] = test system: 786-0 renal
[20] = test system: NCI-H23 lung
[21] = test system: UACC-257 melanoma
[22] = test system: DU-145 prostate
[23] = test system: HL-60(TB) leukemia
[24] = test system: SNB-75 CNS
[25] = test system: SN12C renal
[26] = test system: MCF7 breast
[27] = test system: EKVX NSCLC
[28] = test system: HOP-62 NSCLC
[29] = test system: HOP-92 NSCLC
[30] = test system: OVCAR-4 ovarian
[31] = test system: NCI-H522 lung
[32] = test system: HCT-15 colon
[33] = test system: OVCAR-8 ovarian
[34] = test system: OVCAR-5 ovarian
[35] = test system: HCC-2998 colon
[36] = test system: SK-OV-3 ovarian
[37] = test system: MDA-MB-231 breast
[38] = test system: ACHN renal
[39] = test system: U251 CNS
[40] = test system: UO-31 renal
[41] = test system: CCRF-CEM leukemia
[42] = test system: MALME-3M melanoma
[43] = test system: SR leukemia
[44] = test system: A498 renal
[45] = test system: SF-295 CNS
[46] = test system: COLO 205 colon
[47] = test system: SK-MEL-28 melanoma
[48] = test system: KM12 colon
[49] = test system: SNB-19 CNS
[50] = test system: PC-3 prostate
[51] = test system: CAKI-1 renal
[52] = test system: SF-539 CNS
[53] = test system: M14 melanoma
[54] = test system: SK-MEL-5 melanoma
[55] = test system: SK-MEL-2 melanoma

Measured: TGI

O=C1OC2C(O)C(=O)OC2C1O (stereo not given)
> 100 µM: [1] | [2] | [3] | [4] | [5] | [6] | [7] | [8] | [9] | [10] | [11] | [12] | [13] | [14] | [15] | [16] | [17] | [18] | [19] | [20] | [21] | [22] | [23] | [24] | [25] | [26] | [27] | [28] | [29] | [30] | [31] | [32] | [33] | [34] | [35] | [36] | [37] | [38] | [39] | [40] | [41] | [42] | [43] | [44] | [45] | [46] | [47] | [48] | [49] | [50] | [51] | [52] | [53] | [54] | [55]
